Tested on: HBV
Assay: HBV-DNA Antiviral Assay Using HepG2.117 Cells (intracellular HBV DNA by qPCR)
Assay type: cell-based, hepatitis B virus (genotype D)
Conditions: Hepatitis B virus, HepG2.117
How it was run: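 Endpoint: qPCR copy number of intracellular HBV DNA after 3-day compound exposure, with inhibition set relative to the 2% DMSO control. The cells were doxycycline-free HepG2.117 carrying a Tet-off genotype D genome, dosed at nine 4-fold dilutions. A duplicate plate gave ATP-based viability (CC50).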

Row | Compound | EC50 [nM]
1 | C[C@@H]1Cn2c(c(C(=O)NCc3ccccc3-n3cncn3)n(-c3ccc(OC4CC4)cc3)c2=O)CN1C(=O)c1ccc(Br)c(Cl)c1 (stereo in doubt) [Example 447, rac-(6R)-7-(4-bromo-3-chloro-benzoyl)-2-[4-(cyclopropoxy)phenyl]-6-methyl-3-oxo-N-[[2-(1,2,4-triazol-1-yl)phenyl]methyl]-6,8-dihydro-5H-imidazo[1,5-a]pyrazine-1-carboxamide] | 100 to 500
2 | COc1ccc(-n2c(C(=O)NCc3cccnc3)c3n(c2=O)CCN(C(=O)c2ccc(Cl)c(Cl)c2)C3)cc1 [Example 64, 7-(3,4-dichlorobenzoyl)-2-(4-methoxyphenyl)-3-oxo-N-(3-pyridylmethyl)-6,8-dihydro-5H-imidazo[1,5-a]pyrazine-1-carboxamide] | > 5000
3 | C[C@H](NC(=O)c1c2n(c(=O)n1-c1ccc(OCC(F)(F)F)cc1)CCN(C(=O)c1ccc(Br)c(Cl)c1)C2)c1ccccc1 (stereo in doubt) [Example 127, 7-(4-bromo-3-chloro-benzoyl)-3-oxo-N-[rac-(1S)-1-phenylethyl]-2-[4-(2,2,2-trifluoroethoxy)phenyl]-6,8-dihydro-5H-imidazo[1,5-a]pyrazine-1-carboxamide] | 500 to 5000
4 | COc1ccc([C@H](C)NC(=O)c2c3n(c(=O)n2-c2ccc(OC)cc2)CCN(C(=O)c2ccc(Br)c(Cl)c2)C3)cc1 (stereo in doubt) [Example 73, 7-(4-bromo-3-chloro-benzoyl)-2-(4-methoxyphenyl)-3-oxo-N-[rac-(1S)-1-(4-methoxyphenyl)ethyl]-6,8-dihydro-5H-imidazo[1,5-a]pyrazine-1-carboxamide] | < 100
5 | C[C@@H]1Cn2c(c(C(=O)N[C@H](C)c3ccccc3)n(-c3ccc(OC4CC4)cc3)c2=O)CN1C(=O)c1ccc(Br)c(Cl)c1 (mixture of isomers) [Example 331, (6RS)-7-(4-bromo-3-chloro-benzoyl)-2-[4-(cyclopropoxy)phenyl]-6-methyl-3-oxo-N-[(1S)-1-phenylethyl]-6,8-dihydro-5H-imidazo[1,5-a]pyrazine-1-carboxamide] | 500 to 5000
6 | O=C(c1ccc(Br)c(Cl)c1)N1CCn2c(c3n(c2=O)C[C@@H](F)CN(Cc2ccccc2)C3=O)C1 (stereo in doubt) [Example 201, rac-(11S)-13-benzyl-4-(4-bromo-3-chloro-benzoyl)-11-fluoro-4,7,9,13-tetrazatricyclo[7.5.0.0^2,7]tetradec-1-ene-8,14-dione] | 100 to 500
7 | C[C@H](Oc1ccc([C@H](C)NC(=O)c2c3n(c(=O)n2-c2ccc(OC4CC4)cc2)CCN(C(=O)c2ccc(Br)c(Cl)c2)C3)c(F)c1)C(N)=O (stereo in doubt) [Example 358, 7-(4-bromo-3-chloro-benzoyl)-2-[4-(cyclopropoxy)phenyl]-3-oxo-N-[rac-(1S)-1-[2-fluoro-4-[rac-(1S)-2-amino-1-methyl-2-oxo-ethoxy]phenyl]ethyl]-6,8-dihydro-5H-imidazo[1,5-a]pyrazine-1-carboxamide] | < 100
8 | COc1ccc(-n2c(C(=O)NCc3ccccc3F)c3n(c2=O)CCN(C(=O)c2ccc(Br)c(Cl)c2)C3)cc1 [Example 181, 7-(4-bromo-3-chloro-benzoyl)-N-[(2-fluorophenyl)methyl]-2-(4-methoxyphenyl)-3-oxo-6,8-dihydro-5H-imidazo[1,5-a]pyrazine-1-carboxamide] | 100 to 500
9 | O=C(NCc1ccccc1)c1c2n(c(=O)n1-c1ccc3c(c1)OCO3)CCN(C(=O)c1ccc(Cl)c(Cl)c1)C2 [Example 88, 2-(1,3-benzodioxol-5-yl)-N-benzyl-7-(3,4-dichlorobenzoyl)-3-oxo-6,8-dihydro-5H-imidazo[1,5-a]pyrazine-1-carboxamide] | 500 to 5000
10 | COc1ccc(-n2c(C(=O)N[C@@H](c3ccccc3)C(C)C)c3n(c2=O)CCN(C(=O)c2ccc(Br)c(Cl)c2)C3)cc1 (racemic) [Example 178, 7-(4-bromo-3-chloro-benzoyl)-2-(4-methoxyphenyl)-3-oxo-N-[rac-(1R)-2-methyl-1-phenyl-propyl]-6,8-dihydro-5H-imidazo[1,5-a]pyrazine-1-carboxamide] | 500 to 5000
11 | COc1ccc([C@H](C)NC(=O)c2c3n(c(=O)n2-c2ccc(OC4CC4)cc2)CCN(C(=O)c2ccc(Br)c(Cl)c2)C3)cc1 [Example 443, 7-(4-bromo-3-chloro-benozyl)-2-[4-(cyclopropoxy)phenyl]-N-[(1S)-1-(4-methoxyphenyl)ethyl]-3-oxo-6,8-dihydro-5H-imidazo[1,5-a]pyrazine-1-carboxamide] | 100 to 500
12 | COCCOc1ccc(-n2c(C(=O)NCc3ccccc3)c3n(c2=O)CCN(C(=O)c2ccc(Br)c(Cl)c2)C3)cc1 [Example 250, N-benzyl-7-(4-bromo-3-chloro-benzoyl)-2-[4-(2-methoxyethoxy)phenyl]-3-oxo-6,8-dihydro-5H-imidazo[1,5-a]pyrazine-1-carboxamide] | 100 to 500
13 | O=C(NCc1ccccc1)c1c2n(c(=O)n1-c1ccc3nonc3c1)CCN(C(=O)c1ccc(Br)c(Cl)c1)C2 [Example 389, 2-(2,1,3-benzoxadiazol-5-yl)-N-benzyl-7-(4-bromo-3-chloro-benzoyl)-3-oxo-6,8-dihydro-5H-imidazo[1,5-a]pyrazine-1-carboxamide] | 500 to 5000
14 | CCS(=O)(=O)c1cccc(CNC(=O)c2c3n(c(=O)n2-c2ccc(OC(C)C)cc2)CCN(C(=O)c2ccc(Br)c(Cl)c2)C3)c1 [Example 186, 7-(4-bromo-3-chloro-benzoyl)-N-[(3-ethylsulfonylphenyl)methyl]-2-(4-isopropoxyphenyl)-3-oxo-6,8-dihydro-5H-imidazo[1,5-a]pyrazine-1-carboxamide] | 500 to 5000
15 | COc1ccc(-n2c(C(=O)N[C@@H]3CCc4ccccc43)c3n(c2=O)CCN(C(=O)c2ccc(Br)c(Cl)c2)C3)cc1 (racemic) [Example 75, 7-(4-bromo-3-chloro-benzoyl)-2-(4-methoxyphenyl)-3-oxo-N-[rac-(1R)-indan-1-yl]-6,8-dihydro-5H-imidazo[1,5-a]pyrazine-1-carboxamide] | 500 to 5000
16 | O=C(NCc1ccccc1)c1c2n(c(=O)n1-c1ccc(-c3ncc[nH]3)cc1)CCN(C(=O)c1ccc(Br)c(Cl)c1)C2 [Example 430, N-benzyl-7-(4-bromo-3-chloro-benozyl)-2-[4-(1H-imidazol-2-yl)phenyl]-3-oxo-6,8-dihydro-5H-imidazo[1,5-a]pyrazine-1-carboxamide] | 500 to 5000
17 | COc1ccc(-n2c(C(=O)NCc3ccccc3)c3n(c2=O)CCN(C(=O)c2ccc(Cl)c(Cl)c2)C3)c(C#N)c1 [Example 80, N-benzyl-2-(2-cyano-4-methoxy-phenyl)-7-(3,4-dichlorobenzoyl)-3-oxo-6,8-dihydro-5H-imidazo[1,5-a]pyrazine-1-carboxamide] | > 5000
18 | C[C@@H]1CN(c2ccc(-n3c(C(=O)NCc4ccccc4)c4n(c3=O)CCN(C(=O)c3ccc(Br)c(Cl)c3)C4)cc2)CCO1 (racemic) [Example 416, N-benzyl-7-(4-bromo-3-chloro-benzoyl)-3-oxo-2-[4-[rac-(2R)-2-methylmorpholin-4-yl]phenyl]-6,8-dihydro-5H-imidazo[1,5-a]pyrazine-1-carboxamide] | 100 to 500
19 | CC(C)Oc1ccc(-n2c(C(=O)NCc3ccccc3)c3n(c2=O)CCN(C(=O)/C=C/c2cccc(Cl)c2Cl)C3)cc1 [Example 226, N-benzyl-7-[(E)-3-(2,3-dichlorophenyl)prop-2-enoyl]-2-(4-isopropoxyphenyl)-3-oxo-6,8-dihydro-5H-imidazo[1,5-a]pyrazine-1-carboxamide] | > 5000
20 | C[C@H](NC(=O)c1c2n(c(=O)n1-c1ccc(OCC(F)(F)F)cc1)CCN(C(=O)c1ccc(Br)c(Cl)c1)C2)c1ccc(OC(C)(C)C(N)=O)cc1F (stereo in doubt) [Example 336, 7-(4-bromo-3-chloro-benzoyl)-3-oxo-N-[rac-(1S)-1-[4-(2-amino-1,1-dimethyl-2-oxo-ethoxy)-2-fluoro-phenyl]ethyl]-2-[4-(2,2,2-trifluoroethoxy)phenyl]-6,8-dihydro-5H-imidazo[1,5-a]pyrazine-1-carboxamide] | 100 to 500
21 | O=C(NCc1ccc(OC2COC2)cc1F)c1c2n(c(=O)n1-c1ccc(OCC(F)(F)F)cc1)CCN(C(=O)c1ccc(Br)c(Cl)c1)C2 [Example 329, 7-(4-bromo-3-chloro-benzoyl)-N-[[2-fluoro-4-(oxetan-3-yloxy)phenyl]methyl]-3-oxo-2-[4-(2,2,2-trifluoroethoxy)phenyl]-6,8-dihydro-5H-imidazo[1,5-a]pyrazine-1-carboxamide] | 100 to 500
22 | COc1ccc(-n2c(C(=O)N[C@@H](c3ccccc3)C(F)(F)F)c3n(c2=O)CCN(C(=O)c2ccc(Br)c(Cl)c2)C3)cc1 (stereo in doubt) [Example 209, 7-(4-bromo-3-chloro-benozyl)-2-(4-methoxyphenyl)-3-oxo-N-[rac-(1S)-2,2,2-trifluoro-1-phenyl-ethyl]-6,8-dihydro-5H-imidazo[1,5-a]pyrazine-1-carboxamide] | 100 to 500
23 | CS(=O)(=O)c1ccc(-n2c(C(=O)NCc3ccccc3)c3n(c2=O)CCN(C(=O)c2ccc(Br)c(Cl)c2)C3)cc1 [Example 45, N-benzyl-7-(4-bromo-3-chloro-benzoyl)-2-(4-methylsulfonylphenyl)-3-oxo-6,8-dihydro-5H-imidazo[1,5-a]pyrazine-1-carboxamide] | 500 to 5000
24 | COc1ccc(-n2c(C(=O)NCc3ccccc3OC)c3n(c2=O)CCN(C(=O)c2ccc(Br)c(Cl)c2)C3)cc1 [Example 114, 7-(4-bromo-3-chloro-benzoyl)-2-(4-methoxyphenyl)-N-[(2-methoxyphenyl)methyl]-3-oxo-6,8-dihydro-5H-imidazo[1,5-a]pyrazine-1-carboxamide] | 100 to 500
25 | O=C(NCc1ccccc1)c1c2n(c(=O)n1-c1ccc(F)cc1)CCN(C(=O)c1ccc(Br)c(Cl)c1)C2 [Example 22, N-benzyl-7-(4-bromo-3-chloro-benzoyl)-2-(4-fluorophenyl)-3-oxo-6,8-dihydro-5H-imidazo[1,5-a]pyrazine-1-carboxamide] | 500 to 5000
